From paper PMC10882719 (Frontiers in Neuroscience, 2024)
Like-named read-outs stand apart in the source and are kept apart here.

Key:
Format in all cases: cell-based
168 GPCRs [1] = molecular target: T1, 168 GPCRs (Homo sapiens, UniProt P32248)
T1 construct: host or cells: PathHunter cell lines
T1 sequence (P32248 25-378): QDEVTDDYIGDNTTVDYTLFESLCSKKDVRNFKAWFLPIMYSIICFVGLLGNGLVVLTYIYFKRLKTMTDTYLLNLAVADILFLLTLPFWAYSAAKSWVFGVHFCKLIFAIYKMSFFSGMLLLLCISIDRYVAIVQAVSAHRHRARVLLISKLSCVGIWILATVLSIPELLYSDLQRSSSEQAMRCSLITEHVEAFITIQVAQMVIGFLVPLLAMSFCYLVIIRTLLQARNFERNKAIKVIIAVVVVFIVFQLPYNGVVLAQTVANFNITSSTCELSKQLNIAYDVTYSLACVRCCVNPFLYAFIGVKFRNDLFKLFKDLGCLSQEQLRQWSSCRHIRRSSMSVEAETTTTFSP

168 GPCRs [2] = molecular target: T2, 168 GPCRs (Homo sapiens, UniProt P32302)
T2 construct: host or cells: PathHunter cell lines
T2 sequence (P32302 1-372): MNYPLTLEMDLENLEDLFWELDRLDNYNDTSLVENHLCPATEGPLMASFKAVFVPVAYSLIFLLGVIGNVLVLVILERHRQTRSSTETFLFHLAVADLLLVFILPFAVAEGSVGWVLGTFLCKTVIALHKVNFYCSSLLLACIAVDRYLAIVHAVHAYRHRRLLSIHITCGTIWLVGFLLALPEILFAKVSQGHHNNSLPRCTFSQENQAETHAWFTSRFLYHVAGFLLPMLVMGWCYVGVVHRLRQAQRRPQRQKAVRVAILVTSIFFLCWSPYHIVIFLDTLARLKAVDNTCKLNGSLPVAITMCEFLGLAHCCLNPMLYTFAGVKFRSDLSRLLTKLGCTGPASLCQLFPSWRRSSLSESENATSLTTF

168 GPCRs [3] = molecular target: T3, 168 GPCRs (Homo sapiens, UniProt P34972)
T3 construct: host or cells: PathHunter cell lines

168 GPCRs [4] = molecular target: T4, 168 GPCRs (Homo sapiens, UniProt P41587); settings: VIPR2
T4 construct: host or cells: PathHunter cell lines
T4 sequence (P41587 24-438): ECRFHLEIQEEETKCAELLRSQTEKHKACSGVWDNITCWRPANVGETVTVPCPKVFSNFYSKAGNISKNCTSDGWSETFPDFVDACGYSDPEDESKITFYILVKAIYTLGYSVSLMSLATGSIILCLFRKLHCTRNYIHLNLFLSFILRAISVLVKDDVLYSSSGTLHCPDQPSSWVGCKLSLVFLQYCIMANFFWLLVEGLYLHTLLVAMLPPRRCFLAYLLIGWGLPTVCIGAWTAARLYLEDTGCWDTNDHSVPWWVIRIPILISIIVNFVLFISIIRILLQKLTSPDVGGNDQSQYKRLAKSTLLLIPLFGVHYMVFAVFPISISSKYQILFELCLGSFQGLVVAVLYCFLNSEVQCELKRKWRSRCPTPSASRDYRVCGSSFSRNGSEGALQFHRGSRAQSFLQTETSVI

168 GPCRs [5] = molecular target: T5, 168 GPCRs (Homo sapiens, UniProt P51677)
T5 construct: host or cells: PathHunter cell lines
T5 sequence (P51677 1-355): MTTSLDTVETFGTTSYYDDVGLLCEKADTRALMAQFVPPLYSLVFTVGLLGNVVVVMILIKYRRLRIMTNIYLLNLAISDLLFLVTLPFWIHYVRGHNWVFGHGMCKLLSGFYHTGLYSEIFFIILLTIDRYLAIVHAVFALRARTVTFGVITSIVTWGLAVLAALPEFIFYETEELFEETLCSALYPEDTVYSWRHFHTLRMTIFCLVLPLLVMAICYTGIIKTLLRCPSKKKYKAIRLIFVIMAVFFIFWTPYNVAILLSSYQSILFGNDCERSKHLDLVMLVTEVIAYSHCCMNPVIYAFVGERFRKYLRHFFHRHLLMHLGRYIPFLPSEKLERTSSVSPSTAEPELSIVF

168 GPCRs [6] = molecular target: T6, 168 GPCRs (Homo sapiens, UniProt Q01726); settings: MC1R
T6 construct: host or cells: PathHunter cell lines

168 GPCRs [7] = molecular target: T7, 168 GPCRs (Homo sapiens, UniProt Q92847); settings: GHSR
T7 construct: host or cells: PathHunter cell lines

168 GPCRs [8] = molecular target: T8, 168 GPCRs (Homo sapiens, UniProt Q9H1C0)
T8 construct: host or cells: PathHunter cell lines
T8 sequence (Q9H1C0 whole entry): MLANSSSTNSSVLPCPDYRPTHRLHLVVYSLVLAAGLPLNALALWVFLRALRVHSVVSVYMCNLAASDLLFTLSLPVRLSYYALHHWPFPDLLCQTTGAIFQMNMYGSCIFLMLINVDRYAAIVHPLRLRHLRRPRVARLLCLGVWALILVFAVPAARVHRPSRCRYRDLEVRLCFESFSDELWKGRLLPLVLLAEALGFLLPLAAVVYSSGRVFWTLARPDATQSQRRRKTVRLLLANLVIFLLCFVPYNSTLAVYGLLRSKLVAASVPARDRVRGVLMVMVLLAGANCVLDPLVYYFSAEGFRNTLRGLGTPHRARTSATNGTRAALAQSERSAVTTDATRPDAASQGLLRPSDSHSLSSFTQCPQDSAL

T7 sequence (Q92847 whole entry): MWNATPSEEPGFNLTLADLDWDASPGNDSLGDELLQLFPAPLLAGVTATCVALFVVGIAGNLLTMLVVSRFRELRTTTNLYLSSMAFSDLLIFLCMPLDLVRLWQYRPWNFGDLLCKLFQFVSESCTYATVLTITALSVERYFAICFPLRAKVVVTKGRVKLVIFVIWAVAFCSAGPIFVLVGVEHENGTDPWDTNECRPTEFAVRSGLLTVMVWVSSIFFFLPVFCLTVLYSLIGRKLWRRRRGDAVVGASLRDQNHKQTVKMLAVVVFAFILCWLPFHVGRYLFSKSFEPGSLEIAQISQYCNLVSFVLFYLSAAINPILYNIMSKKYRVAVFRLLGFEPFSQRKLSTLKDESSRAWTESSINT
T3 sequence (P34972 whole entry): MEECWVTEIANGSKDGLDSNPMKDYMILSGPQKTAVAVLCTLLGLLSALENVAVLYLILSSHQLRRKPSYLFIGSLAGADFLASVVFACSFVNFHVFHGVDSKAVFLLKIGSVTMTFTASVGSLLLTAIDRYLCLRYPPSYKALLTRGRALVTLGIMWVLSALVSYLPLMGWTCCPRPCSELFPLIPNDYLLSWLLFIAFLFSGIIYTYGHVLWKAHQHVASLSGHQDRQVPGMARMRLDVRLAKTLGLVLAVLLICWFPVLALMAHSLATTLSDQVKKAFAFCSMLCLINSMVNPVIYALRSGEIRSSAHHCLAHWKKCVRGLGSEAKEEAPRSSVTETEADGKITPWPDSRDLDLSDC
T6 sequence (Q01726 whole entry): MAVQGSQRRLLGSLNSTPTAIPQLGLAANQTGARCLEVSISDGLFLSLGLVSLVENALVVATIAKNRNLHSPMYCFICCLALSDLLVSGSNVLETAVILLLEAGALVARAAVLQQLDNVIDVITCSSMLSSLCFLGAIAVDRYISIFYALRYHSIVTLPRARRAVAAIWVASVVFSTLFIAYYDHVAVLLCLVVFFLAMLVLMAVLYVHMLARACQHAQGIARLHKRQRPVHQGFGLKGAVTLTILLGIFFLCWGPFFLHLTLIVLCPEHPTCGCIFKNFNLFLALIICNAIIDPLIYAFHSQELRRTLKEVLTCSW

| Compound | % Agonist Activity (168 GPCRs [1]; CCR7, 1 uM) | % Antagonist Activity (168 GPCRs [1]; CCR7, 1 uM) | % Agonist Activity (168 GPCRs [1]; CCR7, 10 uM) | % Antagonist Activity (168 GPCRs [1]; CCR7, 10 uM) | % Agonist Activity (168 GPCRs [2]; CXCR5, 1 uM) | % Antagonist Activity (168 GPCRs [2]; CXCR5, 1 uM) | % Agonist Activity (168 GPCRs [2]; CXCR5, 10 uM) | % Antagonist Activity (168 GPCRs [2]; CXCR5, 10 uM) | % Agonist Activity (168 GPCRs [3]; CNR2, 1 uM) | % Antagonist Activity (168 GPCRs [3]; CNR2, 1 uM) | % Agonist Activity (168 GPCRs [3]; CNR2, 10 uM) | % Antagonist Activity (168 GPCRs [3]; CNR2, 10 uM) | % Agonist Activity (168 GPCRs [4]; Conc 1 uM) | % Antagonist Activity (168 GPCRs [4]; Conc 1 uM) | % Agonist Activity (168 GPCRs [4]; Conc 10 uM) | % Antagonist Activity (168 GPCRs [4]; Conc 10 uM) | % Agonist Activity (168 GPCRs [5]; CCR3, 1 uM) | % Antagonist Activity (168 GPCRs [5]; CCR3, 1 uM) | % Agonist Activity (168 GPCRs [5]; CCR3, 10 uM) | % Antagonist Activity (168 GPCRs [5]; CCR3, 10 uM) | further results |
| --- | --- | --- | --- | --- | --- | --- | --- | --- | --- | --- | --- | --- | --- | --- | --- | --- | --- | --- | --- | --- | --- |
| CNC(C)Cc1ccc2c(c1)OCO2 (stereo not shown) [MDMA, 3,4-Methylenedioxy methamphetamine, reference compound] | 1.9% | 1.5% | 2.6% | 6.8% | 2.7% | -4.4% | 1.4% | 3.2% | 0.1% | 8.9% | -6.8% | 7.8% | -1.6% | -1.1% | -0.7% | 3.1% | -1.5% | 1.5% | -1.3% | 9.6% | % Agonist Activity (168 GPCRs [6]; 1 uM): -6.6%; % Antagonist Activity (168 GPCRs [6]; 1 uM): 6.5%; % Agonist Activity (168 GPCRs [6]; 10 uM): -3.4%; % Antagonist Activity (168 GPCRs [6]; 10 uM): -4.9%; % Agonist Activity (168 GPCRs [7]; 1 uM): 3%; % Antagonist Activity (168 GPCRs [7]; 1 uM): -30.8%; % Agonist Activity (168 GPCRs [7]; 10 uM): 3.1%; % Antagonist Activity (168 GPCRs [7]; 10 uM): -7%; % Agonist Activity (168 GPCRs [8]; GPR92, 1 uM): -4%; % Antagonist Activity (168 GPCRs [8]; GPR92, 1 uM): 6.8%; % Agonist Activity (168 GPCRs [8]; GPR92, 10 uM): -2.2%; % Antagonist Activity (168 GPCRs [8]; GPR92, 10 uM): 8% |
| CNC(C)C(=O)c1ccc2c(c1)OCO2 (stereo not shown) [methylone] | -3.4% | -8.3% | -3.7% | -3.4% | 2.5% | -4.3% | 1.4% | -15.1% | 7% | 3.6% | 3.2% | -3.2% | -0.4% | -1.5% | -0.3% | -2.6% | -6.7% | -11.8% | -7.6% | -4% | % Agonist Activity (168 GPCRs [6]; 1 uM): -2.6%; % Antagonist Activity (168 GPCRs [6]; 1 uM): 20.1%; % Agonist Activity (168 GPCRs [6]; 10 uM): -4.4%; % Antagonist Activity (168 GPCRs [6]; 10 uM): 15.9%; % Agonist Activity (168 GPCRs [7]; 1 uM): -6.6%; % Antagonist Activity (168 GPCRs [7]; 1 uM): 25.8%; % Agonist Activity (168 GPCRs [7]; 10 uM): -7.2%; % Antagonist Activity (168 GPCRs [7]; 10 uM): 9.1%; % Agonist Activity (168 GPCRs [8]; GPR92, 1 uM): -1.6%; % Antagonist Activity (168 GPCRs [8]; GPR92, 1 uM): -8%; % Agonist Activity (168 GPCRs [8]; GPR92, 10 uM): -3.5%; % Antagonist Activity (168 GPCRs [8]; GPR92, 10 uM): 5.8% |
